Experimental data as given in ChEMBL document CHEMBL5724914, “Linking interpersonal differences in gut microbiota composition and drug biotransformation activity” (2024).

Columns and labels:
[1] = (§1) The drug is tested on WLS-170 corresponding to human gut metagenome with ENA study accession number: PRJEB37062 and ENA sample accession number: ERS12561762 for biotransformation under anaerobic condition. The drug concentrations were measured over 9 timepoints collected between 0 and 24 hours of incubation by liquid-chromatography-coupled mass spectrometry (LC–MS); conditions: 2 µM
[2] = human gut metagenome, 24 h, 2 µM
[3] = as §1, with “Z-028” for “WLS-170”, “mouse” for “human”, “ERS12561827” for “ERS12561762”; conditions: 2 µM
[4] = as §1, with “WLS-370” for “WLS-170”, “ERS12561793” for “ERS12561762”; conditions: 2 µM
[5] = as §1, with “Z-006” for “WLS-170”, “mouse” for “human”, “ERS12561806” for “ERS12561762”; conditions: 2 µM
[6] = as §1, with “WLS-010” for “WLS-170”, “ERS12561743” for “ERS12561762”; conditions: 2 µM
[7] = as §1, with “Z-013” for “WLS-170”, “rabbit” for “human”, “ERS12561813” for “ERS12561762”; conditions: 2 µM
[8] = as §1, with “Z-010” for “WLS-170”, “to” for “to human gut”, “ERS12561810” for “ERS12561762”; conditions: 2 µM
[9] = as §1, with “WLS-098” for “WLS-170”, “ERS12561754” for “ERS12561762”; conditions: 2 µM
[10] = human gut metagenome, 24 h, 2 µM; remark: listed apart in the source
[11] = as §1, with “Z-005” for “WLS-170”, “to” for “to human gut”, “ERS12561805” for “ERS12561762”; conditions: 2 µM
[12] = as §1, with “Z-023” for “WLS-170”, “to” for “to human gut”, “ERS12561822” for “ERS12561762”; conditions: 2 µM
[13] = human gut metagenome, 24 h, 2 µM; remark: listed apart in the source
[14] = human gut metagenome, 24 h, 2 µM; remark: listed apart in the source
[15] = as §1, with “Z-021” for “WLS-170”, “to” for “to human gut”, “ERS12561820” for “ERS12561762”; conditions: 2 µM
[16] = as §1, with “WLS-086” for “WLS-170”, “ERS12561752” for “ERS12561762”; conditions: 2 µM
[17] = as §1, with “WLS-082” for “WLS-170”, “ERS12561751” for “ERS12561762”; conditions: 2 µM
[18] = as §1, with “Z-018” for “WLS-170”, “pig” for “human”, “ERS12561817” for “ERS12561762”; conditions: 2 µM
[19] = human gut metagenome, 24 h, 2 µM; remark: listed apart in the source
[20] = human gut metagenome, 24 h, 2 µM; remark: listed apart in the source
Note: call rule not given here.

| SMILES | Bacterial Biotransformation [1] | Bacterial Biotransformation [2] | Bacterial Biotransformation [3] | Bacterial Biotransformation [4] | Bacterial Biotransformation [5] | Bacterial Biotransformation [6] | Bacterial Biotransformation [7] | Bacterial Biotransformation [8] | Bacterial Biotransformation [9] | Bacterial Biotransformation [10] | Bacterial Biotransformation [11] | Bacterial Biotransformation [12] | Bacterial Biotransformation [13] | Bacterial Biotransformation [14] | Bacterial Biotransformation [15] | Bacterial Biotransformation [16] | Bacterial Biotransformation [17] | Bacterial Biotransformation [18] | Bacterial Biotransformation [19] | Bacterial Biotransformation [20] |
| --- | --- | --- | --- | --- | --- | --- | --- | --- | --- | --- | --- | --- | --- | --- | --- | --- | --- | --- | --- | --- |
| COc1ccc(/C=C/C(=O)Nc2ccccc2C(=O)O)cc1OC | Compound NOT metabolized | Compound metabolized | Compound NOT metabolized | Compound NOT metabolized | Compound NOT metabolized | Compound metabolized | Compound metabolized | Compound metabolized | Compound metabolized | Compound NOT metabolized | Compound metabolized | Compound metabolized | Compound metabolized | Compound NOT metabolized | Compound metabolized | Compound NOT metabolized | Compound metabolized | Compound metabolized | Compound metabolized |  |
| CC(NC(C)(C)C)C(=O)c1cccc(Cl)c1 (configuration not stated) [BUPROPION] | Compound NOT metabolized | Compound metabolized | Compound NOT metabolized | Compound NOT metabolized | Compound NOT metabolized |  | Compound metabolized | Compound NOT metabolized | Compound NOT metabolized | Compound NOT metabolized | Compound NOT metabolized | Compound NOT metabolized | Compound metabolized | Compound NOT metabolized | Compound NOT metabolized | Compound NOT metabolized | Compound NOT metabolized | Compound metabolized | Compound NOT metabolized | Compound NOT metabolized |
| CN1CCC[C@@H]1CCO[C@](C)(c1ccccc1)c1ccc(Cl)cc1.O=C(O)/C=C/C(=O)O [CLEMASTINE FUMARATE] | Compound metabolized | Compound metabolized | Compound NOT metabolized | Compound metabolized | Compound NOT metabolized | Compound NOT metabolized | Compound NOT metabolized | Compound NOT metabolized | Compound metabolized | Compound metabolized | Compound NOT metabolized | Compound NOT metabolized |  | Compound NOT metabolized | Compound NOT metabolized | Compound metabolized | Compound NOT metabolized | Compound NOT metabolized | Compound metabolized | Compound metabolized |
| COC1=C(OC)C(=O)C(CCCCCCCCCCO)=C(C)C1=O [IDEBENONE] | Compound NOT metabolized |  | Compound metabolized | Compound metabolized | Compound metabolized | Compound metabolized | Compound metabolized | Compound metabolized |  |  | Compound metabolized | Compound metabolized |  | Compound NOT metabolized | Compound metabolized |  | Compound metabolized | Compound metabolized |  | Compound metabolized |
| Cc1cc2c(s1)Nc1ccccc1N=C2N1CCN(C)CC1 [OLANZAPINE] |  | Compound metabolized | Compound NOT metabolized | Compound NOT metabolized | Compound NOT metabolized | Compound NOT metabolized | Compound NOT metabolized | Compound NOT metabolized |  | Compound NOT metabolized | Compound NOT metabolized | Compound NOT metabolized | Compound NOT metabolized |  | Compound NOT metabolized |  | Compound NOT metabolized | Compound NOT metabolized | Compound metabolized | Compound metabolized |
| CC(=O)O[C@H]1C(=O)[C@@]2(C)[C@H]([C@H](OC(=O)c3ccccc3)[C@]3(O)C[C@H](OC(=O)[C@H](O)[C@@H](NC(=O)c4ccccc4)c4ccccc4)C(C)=C1C3(C)C)[C@]1(OC(C)=O)CO[C@@H]1C[C@@H]2O [PACLITAXEL] | Compound NOT metabolized | Compound metabolized | Compound metabolized | Compound NOT metabolized | Compound NOT metabolized | Compound metabolized | Compound metabolized | Compound metabolized | Compound NOT metabolized | Compound NOT metabolized | Compound metabolized | Compound metabolized | Compound NOT metabolized | Compound NOT metabolized | Compound NOT metabolized | Compound NOT metabolized | Compound metabolized | Compound metabolized | Compound NOT metabolized |  |
| COc1cc(NC(C)CCCN)c2ncccc2c1.O=P(O)(O)O.O=P(O)(O)O (configuration not stated) [PRIMAQUINE PHOSPHATE] | Compound NOT metabolized | Compound NOT metabolized | Compound NOT metabolized | Compound NOT metabolized | Compound NOT metabolized |  | Compound NOT metabolized | Compound NOT metabolized | Compound metabolized | Compound NOT metabolized | Compound NOT metabolized | Compound NOT metabolized | Compound NOT metabolized | Compound NOT metabolized | Compound NOT metabolized |  | Compound metabolized | Compound NOT metabolized | Compound NOT metabolized | Compound metabolized |
| CC(=O)OCC(=O)NCCCOc1cccc(CN2CCCCC2)c1 [ROXATIDINE ACETATE] |  | Compound metabolized | Compound metabolized | Compound metabolized | Compound metabolized | Compound metabolized | Compound NOT metabolized | Compound metabolized | Compound metabolized | Compound metabolized | Compound metabolized | Compound metabolized | Compound metabolized | Compound metabolized | Compound metabolized | Compound metabolized | Compound metabolized | Compound metabolized | Compound metabolized | Compound metabolized |
| CN[C@H]1CC[C@@H](c2ccc(Cl)c(Cl)c2)c2ccccc21 [SERTRALINE] | Compound metabolized | Compound metabolized | Compound NOT metabolized | Compound metabolized | Compound NOT metabolized |  | Compound NOT metabolized | Compound metabolized | Compound metabolized | Compound NOT metabolized | Compound NOT metabolized | Compound metabolized | Compound metabolized | Compound NOT metabolized | Compound metabolized | Compound metabolized | Compound metabolized | Compound metabolized | Compound NOT metabolized | Compound metabolized |
